Data set [1] concerns the target ATP-binding cassette sub-family C member 2 (Rattus norvegicus, UniProt Q63120). In words: (§1) TP_TRANSPORTER: Western in vivo, kidney of SD rat. It counts as functional, organism-based, Sprague-Dawley.
Data set [2] concerns the target Multidrug resistance protein 1a (Rattus norvegicus) (UniProt Q6PSM0). The data set can be described thus: TP_TRANSPORTER: Western in vivo, liver of SD rat. To be noted: Sprague-Dawley. It counts as functional, organism-based.
For data set [3] the target is unchanged. The data set is described as §1. To be noted: Sprague-Dawley. It counts as functional, organism-based.
For data set [4] the target is unchanged. The data set can be described thus: TP_TRANSPORTER: Western in vivo, intestine of SD rat. To be noted: Sprague-Dawley. Format: functional, organism-based.

Sequence of ATP-binding cassette sub-family C member 2 (Q63120 whole entry): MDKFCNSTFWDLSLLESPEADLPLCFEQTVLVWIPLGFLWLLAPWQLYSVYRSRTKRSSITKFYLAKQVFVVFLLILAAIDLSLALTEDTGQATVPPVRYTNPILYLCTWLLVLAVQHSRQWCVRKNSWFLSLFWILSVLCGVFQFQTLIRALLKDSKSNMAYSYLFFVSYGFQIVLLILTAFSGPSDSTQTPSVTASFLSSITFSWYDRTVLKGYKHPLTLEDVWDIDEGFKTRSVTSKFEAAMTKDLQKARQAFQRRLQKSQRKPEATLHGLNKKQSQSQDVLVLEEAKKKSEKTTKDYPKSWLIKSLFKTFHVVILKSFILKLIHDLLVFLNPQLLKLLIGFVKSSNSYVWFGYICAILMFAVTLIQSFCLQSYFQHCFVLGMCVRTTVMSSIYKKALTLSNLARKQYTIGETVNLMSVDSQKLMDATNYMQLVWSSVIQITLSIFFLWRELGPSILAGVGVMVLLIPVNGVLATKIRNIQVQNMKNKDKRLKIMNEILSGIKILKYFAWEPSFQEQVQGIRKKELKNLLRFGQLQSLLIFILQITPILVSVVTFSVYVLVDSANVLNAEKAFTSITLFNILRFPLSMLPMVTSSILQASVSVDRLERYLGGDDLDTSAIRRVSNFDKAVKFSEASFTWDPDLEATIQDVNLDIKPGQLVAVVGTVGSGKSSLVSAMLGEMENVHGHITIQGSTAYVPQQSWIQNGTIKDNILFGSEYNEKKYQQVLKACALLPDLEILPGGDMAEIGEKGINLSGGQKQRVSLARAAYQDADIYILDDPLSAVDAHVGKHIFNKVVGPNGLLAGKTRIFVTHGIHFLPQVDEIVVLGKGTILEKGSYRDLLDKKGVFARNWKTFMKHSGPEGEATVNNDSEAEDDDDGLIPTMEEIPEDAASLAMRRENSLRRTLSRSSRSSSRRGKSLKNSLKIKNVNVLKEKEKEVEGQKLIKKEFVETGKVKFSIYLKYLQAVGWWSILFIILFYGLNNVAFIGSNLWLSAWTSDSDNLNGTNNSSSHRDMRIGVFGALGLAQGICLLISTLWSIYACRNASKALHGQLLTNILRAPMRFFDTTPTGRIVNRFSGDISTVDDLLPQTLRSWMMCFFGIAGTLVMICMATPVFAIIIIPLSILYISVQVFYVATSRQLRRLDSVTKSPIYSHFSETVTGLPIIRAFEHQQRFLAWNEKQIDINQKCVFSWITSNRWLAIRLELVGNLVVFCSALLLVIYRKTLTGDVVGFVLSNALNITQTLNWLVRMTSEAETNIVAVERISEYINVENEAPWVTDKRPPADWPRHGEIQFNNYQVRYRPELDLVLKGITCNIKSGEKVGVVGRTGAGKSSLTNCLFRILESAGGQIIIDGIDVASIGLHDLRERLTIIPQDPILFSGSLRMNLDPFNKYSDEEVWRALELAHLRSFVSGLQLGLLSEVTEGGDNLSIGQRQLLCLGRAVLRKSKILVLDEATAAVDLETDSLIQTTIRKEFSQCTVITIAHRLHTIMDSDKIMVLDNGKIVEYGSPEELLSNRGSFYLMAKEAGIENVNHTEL

Regarding CISPLATIN [listing 1 of 2 here], in data set [1], the Activity entry is “inducer [+]”.
As for CISPLATIN [listing 2 of 2 here], the Activity entry in data set [2], in data set [3] and in data set [4] was “inducer [+]” each time.

Values taken from ChEMBL document CHEMBL2074478, “Cisplatin induces renal expression of P-glycoprotein and canalicular multispecific organic anion transporter” (Am J Physiol, 1999).
